# Test results as given in PubChem BioAssay AID623876 (Vanderbilt Specialized Chemistry Center, 2012).
# Where “and” joins values, the source holds several entries; their conditions need not be identical. Equal values may be shown once. Calls of active or inactive are those of the source.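 Rule for the calls: active = mean EC50 dose giving half the maximal effect below 30 µM; inactive = mean EC50 of 30 µM or more.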
# Biological target: Metabotropic glutamate receptor 4 (Homo sapiens) (UniProt Q14833)
# Sequence (Q14833 whole entry, looked up): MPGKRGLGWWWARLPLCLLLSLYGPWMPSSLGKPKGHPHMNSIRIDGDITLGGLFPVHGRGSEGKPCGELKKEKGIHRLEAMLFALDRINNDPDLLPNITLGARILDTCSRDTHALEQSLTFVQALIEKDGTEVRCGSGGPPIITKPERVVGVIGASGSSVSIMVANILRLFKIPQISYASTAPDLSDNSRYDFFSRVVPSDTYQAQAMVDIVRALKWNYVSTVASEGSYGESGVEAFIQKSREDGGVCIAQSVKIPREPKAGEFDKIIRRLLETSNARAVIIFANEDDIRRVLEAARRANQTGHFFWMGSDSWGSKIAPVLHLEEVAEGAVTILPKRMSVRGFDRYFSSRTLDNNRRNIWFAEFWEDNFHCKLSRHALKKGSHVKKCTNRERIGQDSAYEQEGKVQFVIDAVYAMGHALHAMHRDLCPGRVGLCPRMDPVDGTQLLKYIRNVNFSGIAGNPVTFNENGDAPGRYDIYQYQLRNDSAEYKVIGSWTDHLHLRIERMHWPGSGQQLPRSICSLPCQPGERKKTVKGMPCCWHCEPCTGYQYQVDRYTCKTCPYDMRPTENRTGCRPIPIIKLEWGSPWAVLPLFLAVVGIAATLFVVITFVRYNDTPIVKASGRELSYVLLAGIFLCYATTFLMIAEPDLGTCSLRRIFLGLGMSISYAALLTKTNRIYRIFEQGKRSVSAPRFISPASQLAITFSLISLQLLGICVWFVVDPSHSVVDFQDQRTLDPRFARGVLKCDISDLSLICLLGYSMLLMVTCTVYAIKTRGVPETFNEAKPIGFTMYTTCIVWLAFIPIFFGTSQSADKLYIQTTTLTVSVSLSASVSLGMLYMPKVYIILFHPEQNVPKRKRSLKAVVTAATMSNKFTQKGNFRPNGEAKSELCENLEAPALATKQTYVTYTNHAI
# Experiment: potentiation of human mGlu4 glutamate response – CHO Gqi5 cells, calcium mobilization, SAR follow-up (AID 623876)
# Settings: CHO hmGlu4/Gqi5 calcium mobilization, PAM at EC20 glutamate
row,Compound,EC50
1,Fc1ccc2nc(-c3ccccn3)[nH]c2c1,> 10 µM
2,Clc1cccc(Nc2noc3cccnc23)c1,0.47 µM and 0.3 µM and 0.25 µM
3,O=C(c1cscn1)N1CCOc2ccc(Cl)cc21,> 10 µM
4,O=C(Nc1ccc2cn[nH]c2c1)c1ccccn1,1.37 µM
5,O=C(Nc1cccc(Cl)c1)c1ccccn1,1.2 µM
6,CC(C)N(C(=O)c1ccccn1)c1cccc(Cl)c1,> 10 µM
7,Clc1cccc(Nc2ncnc3cccnc23)c1,7.22 µM
8,COc1cc(NC(=O)c2ccccc2F)ccc1Cl,> 10 µM
9,O=c1[nH]c(-c2ccccn2)nc2cc(Cl)ccc12,> 10 µM
10,COc1cc2nc(-c3ccccn3)[nH]c2cc1Cl,> 10 µM
11,O=C(Nc1nc(C(F)(F)F)cs1)c1ccccn1,> 10 µM
12,FC(F)Oc1cccc(Nc2noc3cccnc23)c1,0.36 µM and 0.44 µM
13,O=C(Nc1ccc2cc[nH]c2c1)c1ccccn1,> 10 µM

# Now from value to molecule:
row,EC50,Compound
1,> 10 µM,Clc1cccc(Nc2coc3cccnc23)c1
2,> 10 µM,Clc1cccc(Nc2ccccn2)c1
3,1.19 µM,Fc1cccc(Nc2noc3cccnc23)c1
4,3.82 µM,O=C(Nc1ccc2c(c1)C(=O)NC2=O)c1ccccn1
5,4.68 µM,Clc1ccc2nc(-c3ccccn3)[nH]c2c1
6,> 10 µM,COc1cc2nc(-c3ncc[nH]3)[nH]c2cc1Cl
7,3.26 µM,COc1cc(Nc2noc3cccnc23)ccc1Cl
8,0.6 µM,Clc1cccc(Nc2nc3ccccc3o2)c1

# Same assay, conditions: CHO hmGlu4/Gqi5 calcium mobilization, PAM at EC20 glutamate; hits give high values
row,Compound,% glutamate max response
1,Cn1ccc(NC(=O)c2ccccn2)n1,inactive
2,Fc1ccc(Nc2ncnc3cccnc23)cc1F,inactive
3,Clc1cccc(Nc2nccc3cccnc23)c1,inactive
4,Clc1cccc(Nc2cccc3cccnc23)c1,inactive
5,COc1cc(Nc2ncn3ccccc23)ccc1Cl,inactive
6,COc1cc(OC)cc(-c2nc(-c3ccccn3)no2)c1,inactive
7,O=C(c1cccc(Cl)n1)N1CCOc2ccc(Cl)cc21,inactive
8,O=C(c1ccccn1)N1CCOc2ccc(Cl)cc21,inactive
9,CCN(C(=O)c1ccccn1)c1cccc(Cl)c1,inactive
10,Clc1cccc(-c2nc(-c3ccccn3)no2)c1,inactive
11,O=C(NCc1cccc(Cl)c1)c1ccccn1,inactive
12,Cn1ccnc1NC(=O)c1ccccn1,inactive
13,COc1cc(NC(C)=O)ccc1Cl,inactive
14,COc1cc(Nc2cccc3cccnc23)ccc1Cl,inactive
15,COc1cc(N2C(=O)c3ccccc3C2=O)ccc1Cl,inactive
16,O=C1COc2cc(NC(=O)c3ccccn3)ccc2N1,inactive
17,COc1cccc(C(=O)N2CCOc3ccc(Cl)cc32)n1,inactive
18,COc1cc(NC(=O)c2ccccc2C)ccc1Cl,inactive
19,O=C(NCCc1cccc(Cl)c1)c1ccccn1,inactive
20,Cc1nsc(NC(=O)c2ccccn2)n1,inactive
21,c1ccc(Nc2coc3cccnc23)cc1,inactive
22,COc1ccc(Nc2ncnc3cccnc23)cc1Cl,inactive
23,O=C1c2cccnc2C(=O)N1c1cccc(Cl)c1,inactive
24,Cc1cc(Nc2ncnc3cccnc23)ccc1Cl,inactive
25,COc1cc(Nc2nc3ccccc3o2)ccc1Cl,inactive
26,FC(F)(F)c1cccc(-c2nc(-c3ccccn3)no2)c1,inactive

# The next lines start with the values.
row,% glutamate max response,Compound
1,inactive,Clc1cccc(-c2n[nH]c(-c3ccccn3)n2)c1
2,inactive,COc1cc(Nc2nccc3ccccc23)ccc1Cl
3,inactive,O=C(c1cccs1)N1CCOc2ccc(Cl)cc21
4,inactive,Cc1nc(NC(=O)c2ccccn2)nn1C
5,inactive,COc1cc(N2Cc3ccccc3C2=O)ccc1Cl
6,inactive,Cn1cnc(NC(=O)c2ccccn2)n1
7,inactive,COc1cc(NC(=O)c2c(F)cccc2F)ccc1Cl
8,inactive,Fc1cccc(Nc2ncnc3cccnc23)c1
9,inactive,c1ccc(Nc2ncnc3cccnc23)cc1
10,inactive,O=C(c1ccccn1)N1CCOc2c(Cl)cccc21
11,inactive,COc1cc(Nc2nccc3cccnc23)ccc1Cl
12,inactive,COc1cc(N2C(=O)c3cccnc3C2=O)ccc1Cl
13,inactive,O=C(c1ccco1)N1CCOc2ccc(Cl)cc21
14,inactive,O=C(c1ccncn1)N1CCOc2ccc(Cl)cc21
15,inactive,Brc1cccc(-c2nc(-c3ccccn3)no2)c1
16,inactive,Clc1cccc(Nc2nccc3ccccc23)c1
17,inactive,O=C(c1ccccn1)N(Cc1ccccn1)c1cccc(Cl)c1
18,inactive,COc1cc(NS(=O)(=O)c2ccccn2)ccc1Cl
19,inactive,c1cnc2c(Nc3ccc4c(c3)OCO4)ncnc2c1
20,inactive,COc1cc2nc(-c3cnccn3)[nH]c2cc1Cl
21,inactive,O=C(c1cncs1)N1CCOc2ccc(Cl)cc21
22,inactive,Fc1ccc(Nc2ncnc3cccnc23)cc1Cl
